{
  "source": "patent US6451828B1",
  "about": "“Selective inhibition of glutaminase by bis-thiadiazoles” (priority 2000, dated 2002)",
  "data": [
    {"system": "microglia (BV-2) cells", "assay": "Inhibition of microglial glutamate secretion", "type": "cell-based", "details": "not given", "protocol": "As described in Wood, glutamate efflux from microglia is dependent on the presence of added external glutamine. […] Therefore, the concentration of glutamate in the culture medium can be used directly as a measure of glutamate production by these cells.\nIn assaying the invention compounds, microglia (BV-2) cells were cultured using standard methods, as described in Example 4. On the day of the experiment, cells were incubated in glutamine free medium for 1 to 1.5 hours, then glutamine and test compounds, dissolved in glutamine free medium, were added. Aliquots were removed at 2 h and 4 h for glutamate analysis.\nInhibition of Microglial Glutamate Secretion\nBV-2 cells were cultured in 24 well plates using Dulbeccos minimal essential medium containing 10% heat inactivated fetal bovine serum, and grown to 70-80% confluency before use. On the day of the experiment, cells were placed in glutamine free medium for 1 to 1.5 hours. […] This solution was used to replace one half of the 0.5 mL culture medium volume at the end of the glutamine free incubation. Aliquots of 10 μL medium were removed at 2 h and 4 h and placed in 96 well microtiter plates with 90 μL DMF/water (1:9) for glutamate analysis.", "values": [
      {"smiles": "[N-]=[N+]=CC(=O)CC[C@H](N)C(=O)O", "note": "[DON, 6-diazo-5-oxo-L-norleucine, reference compound]", "Glutamine dependent glutamate efflux from microglia": "inhibited"}
    ]},
    {"system": "isolated neurons", "assay": "not given", "details": "Dugan et al., 1995; read-out: IC50 for toxicity on isolated neurons; cited from earlier work", "units": {"IC50": "nM"}, "values": [
      {"smiles": "N[C@@H](CCC(=O)O)C(=O)O", "note": "[glutamate]", "IC50": "5000 to 10000"}
    ]},
    {"target": "T1, human kidney glutaminase (Homo sapiens, UniProt O94925)", "T1 construct": "made in house; host or cells: SF9 insect cells (alternatively HEK human kidney cells); cell lysate", "T1 sequence (O94925 55-669)": "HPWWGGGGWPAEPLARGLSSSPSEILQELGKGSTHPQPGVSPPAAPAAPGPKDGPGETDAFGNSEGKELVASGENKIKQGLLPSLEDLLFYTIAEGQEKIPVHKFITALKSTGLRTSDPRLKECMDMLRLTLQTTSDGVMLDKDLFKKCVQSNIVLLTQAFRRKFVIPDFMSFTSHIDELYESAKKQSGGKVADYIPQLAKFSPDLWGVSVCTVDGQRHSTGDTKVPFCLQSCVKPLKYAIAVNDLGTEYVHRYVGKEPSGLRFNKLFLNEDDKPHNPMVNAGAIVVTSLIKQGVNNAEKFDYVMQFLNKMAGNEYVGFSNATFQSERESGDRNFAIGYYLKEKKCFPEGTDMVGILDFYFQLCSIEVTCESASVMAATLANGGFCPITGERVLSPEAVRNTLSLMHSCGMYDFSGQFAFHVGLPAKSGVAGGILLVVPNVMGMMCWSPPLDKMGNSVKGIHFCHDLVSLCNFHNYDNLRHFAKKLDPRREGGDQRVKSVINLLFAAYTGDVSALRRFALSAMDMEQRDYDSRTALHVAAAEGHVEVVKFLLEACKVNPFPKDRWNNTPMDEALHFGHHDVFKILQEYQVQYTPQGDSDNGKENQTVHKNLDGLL", "assay": "Glutaminase inhibition: cell free assay", "type": "biochemical", "details": "not given", "protocol": "Compounds of formula I were tested for inhibition of human kidney glutaminase as described in Example 2.\nGlutaminase Inhibition: Cell Free Assay\nGlutaminase gene-transfected SF9 cells were collected in a 50-mL polypropylene conical tube by centrifugation at 500×g for 10 min (Eppendorf Centrifuge 5810R, F34-6-38 rotor). The supernatant was discarded, and the cell pellet was stored at −80° C. For preparation of the lysate, the cells were thawed on ice and resuspended by pipetting in 0.8 mL cold lysis buffer with 0.5 mM 4-(2-aminoethyl)- benzenesulfonyl fluoride (AEBSF), a serine protease inhibitor. The suspension was stored in ice for 20 min, then subjected to two freeze-thaw cycles (liquid nitrogen followed by a room temperature water bath).\nThe volume of the cell homogenate was measured, and 1/3 volume of 1 M sucrose was added, to give a final concentration of 0.25 M sucrose. Aliquots 100 μL in volume were placed in 1.5 mL microtubes and stored at −80° C.\nAlternatively, HEK (human kidney) cells were used. The medium was removed by aspiration, 5 mL PBS/1 mM EDTA was added, and the culture was incubate for 3 min to allow cells to detach. The cells were collected in a 50-mL conical tube using Eppendorf Centrifuge 5810R, F34-6-38 rotor, and spun at 200×g for 5 min. The supernatant was discarded, and the cell pellet was resuspended pipetting (approximately 0.12 g wet weight) in 0.3 mL lysis buffer with 0.5 mM AEBSF. The tube was left in ice for 20 min. […] subjected to two freeze-thaw cycles as described above. Aliquots 100 μL in volume were placed in 1.5 mL microtubes and stored at −80° C.\nThe activity of the enzyme was determined colorimetrically. One unit of enzyme activity is defined as the amount of enzyme required to generate net OD 540nm=0.6 in a total reaction volume of 220 μL in one hour at room temperature.\nAssay plates were prepared containing 2 μL test compound in DMSO/well. The enzyme was diluted to 1 unit (liver) or 0.8 unit (kidney)/100 μL in glutaminase assay buffer, and 100 μl diluted enzyme was added to each well of the assay plate by Multidrop (Labsystems). The contents were mixed by shaking at full speed for 1 min on TiterMix 100 (Brinkmann). The plates were preincubated at room temperature (RT) for 20 min to allow binding of test compounds to glutaminase, and 50 μL glutamine solution (7 mM in assay buffer) was added to each well by Multidrop. The contents were shaken at full speed for 30 sec on TiterMix 100 (Brinkmann), and the plates were then incubated at RT for 60 min (liver) or 90 min (kidney). To stop the reactions, 20 μL HCl (0.3 N) was added to each well by Multidrop and mixed immediately by shaking for 30 sec on TiterMix 100.\nFor quantification, glutamate (formed by glutaminase-catalyzed hydrolysis of glutamine) is oxidized to 2-oxoglutarate by a second enzyme, glutamate dehydrogenase (GDH), with the concomitant production of the reduced form of nicotinamide adenine dinucleotide (NADH). Reduction of nitro blue tetrazolium (NBT) in the assay solution by NADH, catalyzed by phenazine methosulphate (PMS), results in the formation of a blue-purple formazan. The absorption of formazan at 540 nm is linearly proportional to the concentration of glutamate up to 200 μM.\nNBT/GDH reagent (50 μl) was added to each well by Multidrop and mixed by shaking for 30 sec on TiterMix 100, and the plates were incubated at RT for 20 min to allow color formation by the GDH reaction. Glutamate concentration was determined from formazan concentration as determined by reading OD540 nm on a SpectraMax 340.", "units": {"IC50": "nM"}, "values": [
      {"smiles": "O=C(Nc1nnc(CCSCCc2nnc(NC(=O)c3ccccc3)s2)s1)c1ccccc1", "note": "[SNX-1830]", "IC50": 1060},
      {"smiles": "Cc1cccc(C(=O)Nc2nnc(CCSCCc3nnc(NC(=O)c4cccc(C)c4)s3)s2)c1", "note": "[SNX-1831]", "IC50": 1130},
      {"smiles": "COc1ccc(C(=O)Nc2nnc(CCSCCc3nnc(NC(=O)c4ccc(OC)cc4)s3)s2)cc1", "note": "[SNX-1832]", "IC50": 460},
      {"smiles": "O=C(Nc1nnc(CCSCCc2nnc(NC(=O)c3ccco3)s2)s1)c1ccco1", "note": "[SNX-1836]", "IC50": 1120},
      {"smiles": "O=C(Nc1nnc(CCSCCc2nnc(NC(=O)c3cccs3)s2)s1)c1cccs1", "note": "[SNX-1837]", "IC50": 390},
      {"smiles": "CC(C)(C)C(=O)Nc1nnc(CCSCCc2nnc(NC(=O)C(C)(C)C)s2)s1", "note": "[SNX-1851]", "IC50": 1650},
      {"smiles": "CCOC(=O)Nc1nnc(CCSCCc2nnc(NC(=O)OCC)s2)s1", "note": "[SNX-1852]", "IC50": 1780},
      {"smiles": "COc1ccccc1C(=O)Nc1nnc(CCSCCc2nnc(NC(=O)c3ccccc3OC)s2)s1", "note": "[SNX-1855]", "IC50": 4900}
    ]}
  ]
}
